Laboratory results published in ChEMBL document CHEMBL5365521, “Discovery of the Potent and Selective Inhaled Janus Kinase 1 Inhibitor AZD4604 and Its Preclinical Characterization” (J Med Chem, 2023).
pIC50: −log10 of the molar value. Values after ≈ are worked out from the molar mass of the structure shown. Active and inactive are the calls of the source. The rule behind the calls is not given here.

Key:
[1] = Plasma protein binding in human assessed as free fraction; type: ADME, cell-free
[2] = Drug uptake in lung of rat at 0.020 micromol/kg, IT; type: ADME, tissue-based; conditions: in vivo, other, dose 0.02 µmol/kg
[3] = Inhibition of JAK/STAT signaling pathway in human U-937 cells assessed as inhibition of IL-13 stimulated STAT6 phosphorylation; type: cell-based
[4] = Inhibition of JAK/STAT signaling pathway in human U-937 cells assessed as inhibition of IL-4 stimulated STAT6 phosphorylation; type: cell-based
[5] = AUC(0 to 24 hrs) in rat at 0.020 micromol/kg, IT; type: ADME; design: dose 0.02 µmol/kg, route it; conditions: in vivo, 0.02 µmol/kg
[6] = Distribution coefficient between 1-Octanol and aqueous phosphate buffer, logD of the compound at pH 7.4 by shake-flask method; type: physicochemical; conditions: 1-octanol/aqueous phosphate buffer, read-out: logD
[7] = Volume of distribution at steady state in Han Wistar rat at 0.5 mg/kg, iv; type: ADME, organism-based; conditions: in vivo, read-out: Vdss
[8] = Thermodynamic solubility of the compound in phosphate buffer at pH 6.5 measured after 24 hrs by HPLC-MS analysis; type: physicochemical; conditions: read-out: Therm_solubility
[9] = Efflux ratio of apparent permeability across apical to basolateral side in human Caco-2 cells at pH 7.4; type: ADME, cell-based; conditions: Caco-2, pH 7.4
[10] = Solubility in phosphate buffer at pH 7.4; type: physicochemical
[11] = Apparent permeability of compound across apical to basolateral side in human Caco-2 cells at pH 7.4; type: ADME, cell-based; conditions: Caco-2, pH 7.4
[12] = Toxicity in human naive Th1 cell assessed as reduction in cell viability at 1 to 10000 nM; type: cell-based; conditions: 10 µM, dose 1-10000 nM
[13] = Inhibition of JAK/STAT signaling pathway in human CD4+ T cell assessed as inhibition of IL-4 stimulated STAT6 phosphorylation preincubated for 20 to 60 mins followed by IL-4 stimulation measured after 15 mins by flow cytometry analysis; type: cell-based
Th2 cell [14] = assay: Inhibition of human naive Th2 cell differentiation assessed as decrease in IL-5 production measured after 5 days by MSD assay; type: functional, cell-based; conditions: time 5.0 day
[15] = target: T1, Tyrosine-protein kinase JAK1 (Homo sapiens, UniProt P23458); assay: Inhibition of JAK1 in human CD14-positive cell monocytes isolated from human PBMC assessed as reduction in mature dendritic phenotype by measuring CD14 expression level at 100 nM measured after 5 days by CD14 APC staining based flow cytometry analysis; conditions: time 5.0 day
T1 sequence (P23458 whole entry): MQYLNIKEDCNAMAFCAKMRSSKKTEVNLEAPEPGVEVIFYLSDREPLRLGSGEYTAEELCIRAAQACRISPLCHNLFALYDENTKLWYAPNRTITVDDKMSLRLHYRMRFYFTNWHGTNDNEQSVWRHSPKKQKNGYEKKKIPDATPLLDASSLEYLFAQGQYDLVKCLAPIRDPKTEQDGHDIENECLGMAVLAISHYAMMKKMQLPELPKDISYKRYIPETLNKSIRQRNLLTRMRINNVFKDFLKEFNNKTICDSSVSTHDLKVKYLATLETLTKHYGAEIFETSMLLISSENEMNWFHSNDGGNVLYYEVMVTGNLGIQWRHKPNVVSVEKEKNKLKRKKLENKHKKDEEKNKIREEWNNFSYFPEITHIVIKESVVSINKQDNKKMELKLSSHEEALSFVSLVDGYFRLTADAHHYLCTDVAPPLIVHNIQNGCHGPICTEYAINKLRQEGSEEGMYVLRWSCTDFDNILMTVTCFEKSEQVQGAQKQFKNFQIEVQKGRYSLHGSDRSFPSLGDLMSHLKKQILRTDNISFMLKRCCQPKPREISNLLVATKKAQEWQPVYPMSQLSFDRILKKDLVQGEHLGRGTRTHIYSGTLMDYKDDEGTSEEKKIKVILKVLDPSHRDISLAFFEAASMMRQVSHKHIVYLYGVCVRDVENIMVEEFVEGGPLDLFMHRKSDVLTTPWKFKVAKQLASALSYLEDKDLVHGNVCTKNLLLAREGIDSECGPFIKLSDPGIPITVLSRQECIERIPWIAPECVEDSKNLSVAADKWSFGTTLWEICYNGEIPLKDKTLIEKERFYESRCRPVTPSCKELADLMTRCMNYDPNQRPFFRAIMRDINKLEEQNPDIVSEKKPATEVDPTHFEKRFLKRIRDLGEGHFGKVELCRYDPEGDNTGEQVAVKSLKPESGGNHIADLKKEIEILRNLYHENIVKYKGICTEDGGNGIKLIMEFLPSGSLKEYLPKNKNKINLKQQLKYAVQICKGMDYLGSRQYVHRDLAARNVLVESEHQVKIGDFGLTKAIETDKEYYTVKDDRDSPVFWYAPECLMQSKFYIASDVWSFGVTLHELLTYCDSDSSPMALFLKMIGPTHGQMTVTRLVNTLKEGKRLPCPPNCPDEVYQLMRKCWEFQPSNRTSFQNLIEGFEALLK

Th1 cell = assay: Inhibition of human naive Th1 cell differentiation assessed as decrease in IFNg production measured after 5 days by MSD assay; type: functional, cell-based; conditions: dose 1-10000 nM, time 5.0 day
CD14-positive cell = assay: Inhibition of JAK/STAT signaling pathway in human CD14-positive cell monocytes isolated from human PBMC assessed as inhibition of IL-13 stimulated STAT6 phosphorylation preincubated for 20 to 60 mins followed by IL-13 stimulation measured after 15 mins by flow cytometry analysis; type: cell-based; conditions: time 35-75 min
Th2 cell [16] = assay: Inhibition of human naive Th2 cell differentiation assessed as decrease in IL-13 production measured after 5 days by MSD assay; type: functional, cell-based; conditions: time 5.0 day
Th17 = assay: Inhibition of human memory-derived Th17 cell differentiation assessed as decrease in IL-17 production measured after 5 days by MSD assay; type: functional, cell-based; conditions: time 5.0 day
Th2 cell [17] = assay: Inhibition of human naive Th2 cell differentiation assessed as decrease in IL-4 production measured after 5 days by MSD assay; type: functional, cell-based; conditions: dose 1-10000 nM, time 5.0 day
[18] = Toxicity in human naive Th2 cell assessed as reduction in cell viability at 1 to 10000 nM; type: cell-based; conditions: 10 µM, dose 1-10000 nM
CD4+ T cell = assay: Antiinflammatory activity in human CD4+ T cell assessed as reduction in CD25 expression measured after 5 days by eFluor780 staining based flow cytometry analysis; type: functional; conditions: dose 1-10000 nM, time 5.0 day
[19] = Toxicity in human CD4+ T cell assessed as reduction in cell viability measured after 5 days by eFluor780 staining based flow cytometry analysis; conditions: 120 h, dose 1-10000 nM, time 5 day
[20] = target: T1, Tyrosine-protein kinase JAK1; assay: Inhibition of JAK1 in human CD14-positive cell monocytes isolated from human PBMC assessed as reduction in mature dendritic phenotype by measuring CD11c expression level at 100 nM measured after 5 days by CD11c PE-CF594 staining based flow cytometry analysis; conditions: time 5.0 day
[21] = Toxicity in human memory-derived Th17 cells assessed as reduction in cell viability at 1 to 10000 nM; type: cell-based; conditions: th17, 10 µM, dose 1-10000 nM
[22] = Thermodynamic solubility of the compound in phosphate buffer at pH 7.4 measured after 24 hrs by HPLC-MS analysis; type: physicochemical; conditions: read-out: Therm_solubility
[23] = target: T1, Tyrosine-protein kinase JAK1; assay: Inhibition of N-terminal GST-tagged human recombinant JAK1 (866 to 1154 residues) expressed in insect cells using FITC-C6-KKHTDDGYMPMSPGVA-NH peptide as substrate incubated for 10 mins measured after 90 mins in presence of ATP by caliper mobility shift assay

SMILES | fraction unbound [1] | Drug uptake [2] | pIC50 [3] | pIC50 [4] | AUC(0-t) [5] [µM·h] | logD [6] | solubility thermodynamic at 24 h [8] [µM] | solubility [10] [µM] | Papp A→B [11] [×10⁻⁶ cm/s] | also measured
CC[C@H](C(=O)Nc1cccc2c(-c3nc(Nc4cccc(S(C)(=O)=O)c4F)ncc3C)c[nH]c12)N1CCN(C)CC1 | 0.05 | Active | 7.66 | 7.82 | 1.6 | 2.8 | 104 (≈ 60.3 µg/mL) | 11 (≈ 6.38 µg/mL) | 2.7 | Vd [7]: 9 L/kg; efflux ratio [9]: 3.6
C=CC(=O)Nc1cc(-c2ncnc3[nH]cc(C(=O)OCC)c23)ccc1C |  |  |  |  |  |  |  |  |  | Activity [12]: Non-Toxic; pIC50 [13]: 6.87; inhibition (Th2 cell [14]): Dose-Dependent Effect; Activity [15]: Active; inhibition (Th1 cell): Dose-Dependent Effect; inhibition (CD14-positive cell): inactive; inhibition (Th2 cell [16]): Dose-Dependent Effect; inhibition (Th17): Dose-Dependent Effect; inhibition (Th2 cell [17]): Dose-Dependent Effect; Activity [18]: Non-Toxic; Activity (CD4+ T cell): Dose-Dependent Effect; Activity [19]: Dose-Dependent Effect; Activity [20]: Active; Activity [21]: Non-Toxic
COC[C@H](C(=O)Nc1cccc2c(-c3nc(Nc4cccc(S(C)(=O)=O)c4F)ncc3C)c[nH]c12)N1CCN(C)CC1 | 0.09 | Active | 7.74 | 7.89 | 0.7 | 2.4 | 289 (≈ 172 µg/mL) | 38 (≈ 22.6 µg/mL) | 2.3 | solubility thermodynamic at 24 h [22]: 40 µM (≈ 23.8 µg/mL)
CC[C@H](C(=O)Nc1cccc2c(-c3nc(Nc4cccc(S(C)(=O)=O)c4F)ncc3F)c[nH]c12)N1CCN(C)CC1 | 0.05 |  | 7.37 | 7.57 |  | 3.3 |  | 9 (≈ 5.25 µg/mL) |  | pIC50 [23]: ≥ 8.52
